# Data: patent publication US20250368667A1, “USP1 INHIBITOR” (Shanghai Qilu Pharmaceutical Research and Development …, priority 2022, published 2025)
# pIC50: −log10 of the molar value.
# Target: recombinant human His6-USP1/His6-UAF1 composite protein (Homo sapiens (Human), UniProt O94782)
# Experiment: USP1 enzyme activity detection (Ub-Rho fluorescence)
# Format: biochemical
# Conditions: USP1/UAF1, Ub-Rho substrate 300 nM, 1 hour pre-incubation; read-out: IC50 (enzymatic inhibition of USP1)
# recombinant human His6-USP1/His6-UAF1 composite protein, sequence (O94782 whole entry): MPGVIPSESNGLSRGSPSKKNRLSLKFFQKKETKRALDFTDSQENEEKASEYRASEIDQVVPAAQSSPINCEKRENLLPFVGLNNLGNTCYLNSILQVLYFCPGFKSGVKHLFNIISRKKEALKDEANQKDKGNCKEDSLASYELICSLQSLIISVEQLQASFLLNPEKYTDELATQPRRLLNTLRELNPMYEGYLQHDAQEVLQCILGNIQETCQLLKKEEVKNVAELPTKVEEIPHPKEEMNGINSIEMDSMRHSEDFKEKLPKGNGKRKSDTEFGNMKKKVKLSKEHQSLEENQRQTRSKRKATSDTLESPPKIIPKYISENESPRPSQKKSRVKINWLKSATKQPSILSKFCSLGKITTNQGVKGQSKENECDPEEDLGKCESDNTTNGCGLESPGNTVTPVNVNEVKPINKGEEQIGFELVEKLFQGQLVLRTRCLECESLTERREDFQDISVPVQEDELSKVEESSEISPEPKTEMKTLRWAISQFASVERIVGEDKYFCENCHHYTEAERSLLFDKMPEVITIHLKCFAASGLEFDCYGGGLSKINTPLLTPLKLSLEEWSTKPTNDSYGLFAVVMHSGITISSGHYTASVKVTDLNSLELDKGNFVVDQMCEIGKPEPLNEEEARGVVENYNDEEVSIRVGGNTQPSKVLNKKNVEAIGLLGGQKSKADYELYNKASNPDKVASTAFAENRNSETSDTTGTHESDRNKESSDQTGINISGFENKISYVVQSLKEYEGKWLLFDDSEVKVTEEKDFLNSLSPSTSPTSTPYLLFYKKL
# recombinant human His6-USP1/His6-UAF1 composite protein, sequence (Q8TAF3 whole entry partner): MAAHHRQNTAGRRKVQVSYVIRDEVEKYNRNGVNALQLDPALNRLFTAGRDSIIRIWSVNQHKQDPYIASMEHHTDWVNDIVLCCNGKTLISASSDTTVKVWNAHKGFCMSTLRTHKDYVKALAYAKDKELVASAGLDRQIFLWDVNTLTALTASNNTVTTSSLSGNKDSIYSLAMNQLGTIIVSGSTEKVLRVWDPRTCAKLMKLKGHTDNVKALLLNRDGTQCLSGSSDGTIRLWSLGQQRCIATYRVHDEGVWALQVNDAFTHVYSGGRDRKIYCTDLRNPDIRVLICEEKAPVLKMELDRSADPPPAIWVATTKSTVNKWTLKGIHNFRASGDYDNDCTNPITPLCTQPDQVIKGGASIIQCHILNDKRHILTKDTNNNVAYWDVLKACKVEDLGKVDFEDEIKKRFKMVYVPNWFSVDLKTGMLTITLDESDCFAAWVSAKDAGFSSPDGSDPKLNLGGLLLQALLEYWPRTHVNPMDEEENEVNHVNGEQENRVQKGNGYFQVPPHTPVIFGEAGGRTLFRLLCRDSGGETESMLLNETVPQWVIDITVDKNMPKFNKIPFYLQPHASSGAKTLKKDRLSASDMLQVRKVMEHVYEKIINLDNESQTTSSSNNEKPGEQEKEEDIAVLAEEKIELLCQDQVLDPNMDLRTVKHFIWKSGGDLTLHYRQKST
row,Structure (SMILES),pIC50
1,COc1ncnc(C2CC2)c1-c1ncc2c3ccc(F)nc3n(Cc3ccc(-c4nc(C(F)(F)F)cn4C)cc3)c2n1 [Compound 73],8.31
2,CNc1ccc2c3cnc(-c4c(OC)ncnc4C4CC4)nc3n(Cc3ccc(-c4nc(C(F)(F)F)cn4C)cc3)c2n1 [Compound 74],8.38
3,COc1ncnc(C2CC2)c1-c1ncc2c3ccncc3n(Cc3ccc4c(c3)OCCn3cc(C(F)(F)F)nc3-4)c2n1 [Compound 76],7.60
4,COc1ncnc(C2CC2)c1-c1ncc2c3ccc(C#N)cc3n(Cc3cc(O)c4c(c3)OCCn3cc(C(F)(F)F)nc3-4)c2n1 [Compound 77],7.00
5,CC(C)c1ncccc1-c1ncc2c3ccncc3n(Cc3ccc(-c4nc(C(F)(F)F)cn4C)cc3)c2n1 [Compound 80],8.18
6,COc1cnn(C2CCC2)c1-c1ncc2c3ccncc3n(Cc3ccc(-c4nc(C(F)(F)F)cn4C)cc3)c2n1 [Compound 81],8.15
7,CN1CCc2cccc(-c3ncc4c5ccncc5n(Cc5ccc(-c6nc(C(F)(F)F)cn6C)cc5)c4n3)c21 [Compound 84],7.23
8,Cn1cc(C(F)(F)F)nc1-c1ccc(Cn2c3cnccc3c3cnc(-c4cccc5ccn(C)c45)nc32)cc1 [Compound 85],7.13
9,COc1ncnc(C2CC2)c1-c1ncc2c3cn[nH]c3n(Cc3ccc(C4NC(C(F)(F)F)=CN4C(C)C)cc3)c2n1 (stereo not shown) [Compound 89],8.33
10,COc1ncnc(C2CC2)c1-c1ncc2c3ccncc3n(Cc3ccc4c(c3)CCCCn3cc(C(F)(F)F)nc3-4)c2n1 [Compound 90],8.44
11,COc1ccc2c3cnc(-c4c(OC)ncnc4C4CC4)nc3n(Cc3ccc4c(c3)CCCn3cc(C(F)(F)F)nc3-4)c2n1 [Compound 93],8.59
12,COc1ncnc(C2CC2)c1-c1ncc2c3ccc(F)nc3n(Cc3ccc4c(c3)CCCn3cc(C(F)(F)F)nc3-4)c2n1 [Compound 94],8.43
13,COc1ncnc(C2CC2)c1-c1ncc2c3ccc(P(C)(C)=O)cc3n(Cc3ccc4c(c3)CCCn3cc(C(F)(F)F)nc3-4)c2n1 [Compound 96],8.31
14,COc1ncnc(C2CC2)c1-c1ncc2c3ccc(P4(=O)CCCC4)cc3n(Cc3ccc(-c4nc(C(F)(F)F)cn4C(C)C)cc3)c2n1 [Compound 109],7.93
15,[2H]C([2H])([2H])n1cc2c3cnc(-c4c(OC)ncnc4C4CC4)nc3n(Cc3ccc(-c4nc(C(F)(F)F)cn4C(C)C)cc3)c2n1 [Compound 110],8.02
16,COc1ncnc(C2CC2)c1-c1ncc2c3ncncc3n(Cc3ccc4c(c3)CCCn3cc(C(F)(F)F)nc3-4)c2n1 [Compound 112],7.62
17,COc1ncnc(C2CC2)c1-c1ncc2c3cn(C)nc3n(Cc3ccc(-c4nc(C(F)(F)F)c5n4CCC5)cc3)c2n1 [Compound 114],8.72
18,COc1ncnc(C2CC2)c1-c1ncc2c3cn(C)nc3n(Cc3cc(F)c(-c4nc(C(F)(F)F)cn4C)c(F)c3)c2n1 [Compound 115],8.52
19,COc1ncnc(C2CC2)c1-c1ncc2c3ccnc(F)c3n(Cc3ccc(-c4nc(C(F)(F)F)cn4C)cc3)c2n1 [Compound 116],8.19
20,COc1ncnc(C2CC2)c1-c1ncc2c3cc(F)cnc3n(Cc3ccc(-c4nc(C(F)(F)F)cn4C)cc3)c2n1 [Compound 117],8.45
21,COc1ncnc(C2CC2)c1-c1ncc2c3cn(C)nc3n(Cc3ccc(-c4nc(C(F)(F)F)cn4C)c(F)c3)c2n1 [Compound 118],8.45

row,Structure (SMILES),pIC50
1,COc1ncnc(C2CC2)c1-c1ncc2c3ccc(C#N)cc3n(Cc3cc4c(cn3)-c3nc(C(F)(F)F)cn3CCC4)c2n1 [Compound 119],7.75
2,COc1ncnc(C2CC2)c1-c1ncc2c3cn(C)nc3n(Cc3ccc(-c4nc(C(F)(F)F)c5n4CCCC5)cc3)c2n1 [Compound 120],8.71
3,COc1ncnc(C2CC2)c1-c1ncc2c3ccc(C(O)(C(F)(F)F)C(F)(F)F)cc3n(Cc3ccc(-c4nc(C(F)(F)F)cn4C)cc3)c2n1 [Compound 122],7.44
4,COc1ncnc(C2CC2)c1-c1ncc2c3cnn(C)c3n(Cc3ccc4c(c3)CCCn3cc(C(F)(F)F)nc3-4)c2n1 [Compound 123],7.86
5,COc1ncnc(C2CC2)c1-c1ncc2c3ccc(C#N)cc3n(Cc3ccc(-c4nc(C(F)(F)F)c5ccccn45)cc3)c2n1 [Compound 126],8.15
6,COc1ncnc(C2CC2)c1-c1ncc2c3cn(C)nc3n(Cc3ccc(-c4nc(C(F)(F)F)sc4C)cc3)c2n1 [Compound 131],8.33
7,COc1ncnc(C2CC2)c1-c1ncc2c3cn(C)nc3n(Cc3ccc4c(c3)C3C(Cn5cc(C(F)(F)F)nc5-4)C3(F)F)c2n1 (stereo not shown) [Compound 133],7.66
8,COc1ncnc(C2CC2)c1-c1ncc2c3ccc(N4CCOCC4)nc3n(Cc3ccc4c(c3)CCCn3cc(C(F)(F)F)nc3-4)c2n1 [Compound 135],8.36
9,COc1ncnc(C2CC2)c1-c1ncc2c3ccc(N4CC(O)C4)nc3n(Cc3ccc4c(c3)CCCn3cc(C(F)(F)F)nc3-4)c2n1 [Compound 136],8.87
10,COc1ncnc(C2CC2)c1-c1ncc2c3cn(C)nc3n(Cc3ccc4c(c3)CCCCn3cc(C(F)(F)F)nc3-4)c2n1 [Compound 138],8.74
11,COc1ncnc(C2CC2)c1-c1ncc2c3cn(C)nc3n(Cc3ccc(-c4nc(C(F)(F)F)c5n4CCOC5)cc3)c2n1 [Compound 139],7.63
12,COc1ncnc(C2CC2)c1-c1ncc2c3ccc(P4(=O)CCCC4)cc3n(Cc3ccc(-c4nc(C(F)(F)F)cn4C(C)C)c(F)c3)c2n1 [Compound 141],8.40
13,COc1ncnc(C2CC2)c1-c1ncc2c3cn(C)nc3n(Cc3cc(F)c(-c4nc(C(F)(F)F)c5n4CCC5)c(F)c3)c2n1 [Compound 144],8.50
14,[2H]C([2H])([2H])n1cc2c3cnc(-c4c(OC)ncnc4C4CC4)nc3n(Cc3ccc(-c4nc(C(F)(F)F)cn4C(C)C)c(F)c3)c2n1 [Compound 145],8.23
15,COc1ncnc(C2CC2)c1-c1ncc2c3cc(F)cnc3n(Cc3ccc4c(c3)CCCn3cc(C(F)(F)F)nc3-4)c2n1 [Compound 146],7.94
16,COc1ncnc(C2CC2)c1-c1ncc2c3ccncc3n(Cc3ccc(-c4nc(C(F)(F)F)c(C)n4C)cc3)c2n1 [Compound 151],9.00
17,COc1ncnc(C2CC2)c1-c1ncc2c3ccncc3n(Cc3ccc(-c4nc(C(F)(F)F)c(Br)n4C)cc3)c2n1 [Compound 152],7.96
18,CCP(=O)(CC)c1ccc2c3cnc(-c4c(OC)ncnc4C4CC4)nc3n(Cc3ccc4c(c3)CCCn3cc(C(F)(F)F)nc3-4)c2c1 [Compound 154],8.21
19,COc1ncnc(C2CC2)c1-c1ncc2c3ccncc3n(Cc3ccc(-c4nc(C(F)(F)F)c(F)n4C)cc3)c2n1 [Compound 155],7.59
20,COc1ncnc(C2CC2)c1-c1ncc2c3cn(C)nc3n(Cc3ccc(-c4nc(C(F)(F)F)c5ccccn45)cc3)c2n1 [Compound 156],8.46

# The remaining molecules from weak to strong by pIC50, led by results:
row,pIC50,Structure (SMILES)
1,7.37,COc1ncnc(C2CC2)c1-c1ncc2c3cccnc3n(Cc3ccc4c(c3)Cn3cc(C(F)(F)F)nc3-4)c2n1 [Compound 72]
2,7.41,COc1ncnc(C2CC2)c1-c1ncc2c3ccncc3n(C3CCc4cc(-c5nc(C(F)(F)F)cn5C)ccc43)c2n1 (stereo not shown) [Compound 124]
3,7.44,COc1ncnc(C2CC2)c1-c1ncc2c3ccc(C#N)cc3n(Cc3ccc(-c4nc(C(F)(F)F)c5cnccn45)cc3)c2n1 [Compound 129]
4,7.59,COc1ncnc(C2CC2)c1-c1ncc2c3ccc(C#N)cc3n(Cc3ccc4c(c3)COCCn3cc(C(F)(F)F)nc3-4)c2n1 [Compound 92]
5,7.92,COc1ncnc(C2CC2)c1-c1ncc2c3ccc(C#N)cc3n(Cc3ccc(-c4nc(C(F)(F)F)c(C5CC5)n4C)cc3)c2n1 [Compound 164]
6,7.99,COc1ncnc(C2CC2)c1-c1ncc2c3cn(C)nc3n(Cc3ccc(-c4nc(C(F)(F)F)cs4)cc3)c2n1 [Compound 166]
7,8.12,COc1ncnc(C2CC2)c1-c1ncc2c3cn(C)nc3n(Cc3ccc(-c4nc(C(F)(F)F)cn4C)cc3)c2n1 [Compound 108]
8,8.14,COc1ncnc(C2CC2)c1-c1ncc2c3ccc(C#N)nc3n(Cc3ccc4c(c3)CCCn3cc(C(F)(F)F)nc3-4)c2n1 [Compound 140]
9,8.21,COc1ncnc(C2CC2)c1-c1ncc2c3ccc(P4(=O)CCCC4)cc3n(Cc3ccc(-c4nc(C(F)(F)F)c5n4CCC5)cc3)c2n1 [Compound 142]
10,8.32,COc1ncnc(C2CC2)c1-c1ncc2c3ccc(C)nc3n(Cc3ccc4c(c3)CCCn3cc(C(F)(F)F)nc3-4)c2n1 [Compound 128]
11,8.33,COc1ncnc(C2CC2)c1-c1ncc2c3cn(C)nc3n(Cc3ccc(-c4nc(C(F)(F)F)c5n4CCC5)c(F)c3)c2n1 [Compound 143]
12,8.33,COc1ncnc(C2CC2)c1-c1ncc2c3cn(C)nc3n(Cc3ccc(-c4nc(C(F)(F)F)cn4C(C)C)c(F)c3)c2n1 [Compound 107]
13,8.34,COc1ncnc(C2CC2)c1-c1ncc2c3ccc(CS(C)(=O)=O)cc3n(Cc3ccc4c(c3)CCCn3cc(C(F)(F)F)nc3-4)c2n1 [Compound 83]
14,8.34,COc1ncnc(C2CC2)c1-c1ncc2c3cnn(C)c3n(Cc3ccc(-c4nc(C(F)(F)F)cn4C(C)C)cc3)c2n1 [Compound 106]
15,8.35,COc1ncnc(C2CC2)c1-c1ncc2c3ccc(N(C)S(C)(=O)=O)cc3n(Cc3ccc(-c4nc(C(F)(F)F)cn4C)cc3)c2n1 [Compound 82]
16,8.36,COc1ncnc(C2CC2)c1-c1ncc2c3ccncc3n(Cc3ccc(-c4nc(C(F)(F)F)cn4C)cc3)c2n1 [Compound 78]
17,8.50,COc1ncnc(C2CC2)c1-c1ncc2c3ccc(N(C(C)C)S(C)(=O)=O)cc3n(Cc3ccc4c(c3)CCCn3cc(C(F)(F)F)nc3-4)c2n1 [Compound 99]
18,8.68,COc1ncnc(C2CC2)c1-c1ncc2c3ccc(NCCO)nc3n(Cc3ccc4c(c3)CCCn3cc(C(F)(F)F)nc3-4)c2n1 [Compound 97]
19,8.69,CC(C)c1ccccc1-c1ncc2c3ccncc3n(Cc3ccc(-c4nc(C(F)(F)F)cn4C)cc3)c2n1 [Compound 79]
20,8.81,COc1ncnc(C2CC2)c1-c1ncc2c3ccc(N4CC(OC)C4)nc3n(Cc3ccc4c(c3)CCCn3cc(C(F)(F)F)nc3-4)c2n1 [Compound 137]
